In the supplement of paper PMC10307832:

What was measured:
Assay in all cases: relative viability (nuclei count vs DMSO), 5 days (fraction); higher = more cells survive
JZL-184 + Linsitinib = compound: C1CN(CCC1C(C2=CC3=C(C=C2)OCO3)(C4=CC5=C(C=C4)OCO5)O)C(=O)OC6=CC=C(C=C6)[N+](=O)[O-] [JZL-184] + C[C@]1(O)C[C@@H](c2nc(-c3ccc4ccc(-c5ccccc5)nc4c3)c3c(N)nccn32)C1 [Linsitinib] (partner 1 µM)
In short: (§1)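 Medians of duplicate plates are given as relative viability. That measure is the nuclei count in treated wells divided by the count in vehicle wells. Counts were taken on 4× images of lung cancer cell lines in 1536-well plates, 5 days after pin-tool dosing the day after seeding with one drug alone or a fixed anchor-drug dose plus five library-drug doses (not always all listed) in √10 steps.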

JZL-184 + Vorinostat = compound: C1CN(CCC1C(C2=CC3=C(C=C2)OCO3)(C4=CC5=C(C=C4)OCO5)O)C(=O)OC6=CC=C(C=C6)[N+](=O)[O-] [JZL-184] + O=C(CCCCCCC(=O)Nc1ccccc1)NO [Vorinostat] (partner 1 µM)
In short: as §1

JZL-184 + Luminespib = compound: C1CN(CCC1C(C2=CC3=C(C=C2)OCO3)(C4=CC5=C(C=C4)OCO5)O)C(=O)OC6=CC=C(C=C6)[N+](=O)[O-] [JZL-184] + CCNC(=O)c1noc(-c2cc(C(C)C)c(O)cc2O)c1-c1ccc(CN2CCOCC2)cc1 [Luminespib] (partner 0.01 µM)
In short: as §1

JZL-184 + Crizotinib = compound: C1CN(CCC1C(C2=CC3=C(C=C2)OCO3)(C4=CC5=C(C=C4)OCO5)O)C(=O)OC6=CC=C(C=C6)[N+](=O)[O-] [JZL-184] + C[C@@H](Oc1cc(-c2cnn(C3CCNCC3)c2)cnc1N)c1c(Cl)ccc(F)c1Cl [Crizotinib] (partner 1 µM)
In short: as §1

JZL-184 = compound: C1CN(CCC1C(C2=CC3=C(C=C2)OCO3)(C4=CC5=C(C=C4)OCO5)O)C(=O)OC6=CC=C(C=C6)[N+](=O)[O-] [JZL-184]
In short: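 Viability is treated-well nuclei as a fraction of vehicle-well nuclei, reported as the median across plates. Before counting, lung cancer cell lines were kept overnight at 37 °C in 1536-well plates, pinned with five √10-spaced library-drug doses on vehicle-anchored plates, and left 5 days without medium change, then fixed, permeabilised and Hoechst-stained in one step, imaged at 4× and counted by MetaXpress. A plate passed only if control CV was below 25% and at least one doubling occurred.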

Row | Cell Line | relative viability (JZL-184 + Linsitinib; first compound 0.04 µM) | relative viability (JZL-184 + Linsitinib; first compound 0.4 µM) | relative viability (JZL-184 + Linsitinib; first compound 1.265 µM) | relative viability (JZL-184 + Linsitinib; first compound 4 µM) | relative viability (JZL-184 + Vorinostat; first compound 0.04 µM) | relative viability (JZL-184 + Vorinostat; first compound 0.4 µM) | relative viability (JZL-184 + Vorinostat; first compound 1.265 µM) | relative viability (JZL-184 + Vorinostat; first compound 4 µM) | relative viability (JZL-184 + Luminespib; first compound 0.04 µM) | relative viability (JZL-184 + Luminespib; first compound 0.4 µM) | relative viability (JZL-184 + Luminespib; first compound 1.265 µM) | relative viability (JZL-184 + Luminespib; first compound 4 µM) | relative viability (JZL-184 + Crizotinib; first compound 0.04 µM) | relative viability (JZL-184 + Crizotinib; first compound 0.4 µM) | relative viability (JZL-184 + Crizotinib; first compound 1.265 µM) | relative viability (JZL-184 + Crizotinib; first compound 4 µM) | relative viability (JZL-184; 0.04 µM) | relative viability (JZL-184; 0.4 µM) | relative viability (JZL-184; 1.265 µM) | relative viability (JZL-184; 4 µM)
1 | PC-14 | 1.05 | 0.965 | 0.95 | 0.942 | 0.848 | 0.722 | 0.758 | 0.661 | 0.119 | 0.137 | 0.146 | 0.287 | 0.909 | 0.966 | 0.828 | 0.86 | 1.24 | 0.974 | 1.07 | 0.936
2 | RERF-LC-KJ | 0.874 | 0.854 | 0.867 | 0.873 | 0.707 | 0.642 | 0.699 | 0.614 | 1.34 | 1.37 | 1.31 | 1.2 | 0.844 | 0.75 | 0.856 | 0.742 | 1.05 | 0.981 | 1.02 | 0.988
3 | SK-LU-1 | 1.29 | 1.02 | 1.11 | 1.11 | 0.795 | 0.744 | 0.894 | 0.717 | 0.312 | 0.201 | 0.215 | 0.2 | 1.05 | 0.889 | 1.15 | 1.11 | 1.11 | 0.982 | 1.15 | 1.02
4 | SK-MES-1 | 1.07 | 1.04 | 1.1 | 1.06 | 1.12 | 1.05 | 1.05 | 0.955 | 0.913 | 0.765 | 0.874 | 0.726 | 1.03 | 0.867 | 1.01 | 0.924 | 1.1 | 0.982 | 1.07 | 0.939
5 | SW 1573 | 0.856 | 0.833 | 0.781 | 0.814 | 0.824 | 0.64 | 0.788 | 0.551 | 0.224 | 0.276 | 0.251 | 0.222 | 0.904 | 0.724 | 0.883 | 0.759 | 1.15 | 0.926 | 1.08 | 1.02
6 | UMC-11 | 1.43 | 0.935 | 1.09 | 0.944 | 0.405 | 0.415 | 0.381 | 0.304 | 1.26 | 0.992 | 1.05 | 1.04 | 0.787 | 0.679 | 0.555 | 0.57 | 1.12 | 0.951 | 1.08 | 0.976
